Results: patent US10611772B2, “Crystalline form of Ribociclib succinate” (Apotex Inc., priority 2018, dated 2020)

Columns and labels:
[1] = Comparative intrinsic dissolution testing (Wood apparatus); format: physicochemical; details: 400 mg sample compressed at 1.5 metric tons for 1 minute, 900 mL 0.01 N HCl buffer, 75 rpm
Description: Intrinsic dissolution rate (IDR) measurements were performed using a Wood apparatus. Samples were prepared by compressing 400 mg sample at 1.5 metric tons for 1 minute. A dissolution medium consisting of 900 mL 0.01 N HCl buffer, and rotation speed of 75 rpm, was used for each experiment.

[2] = cited from earlier work; for Hygroscopicity: as reported in the prior art or the CHMP report
[3] = CHMP Assessment Report for KISQALI; anhydrous form; cited from earlier work

Question: Which “Intrinsic Dissolution Rate” value [1] does the source give for CN(C)C(=O)c1cc2cnc(Nc3ccc(N4CCNCC4)cn3)nc2n1C1CCCC1.O=C(O)CCC(=O)O [Ribociclib succinate non-hydrate form] here?
Answer: 1.9520 mg min^−1 cm^−2

Question: And the “Form conversion upon exposure to high humidity levels” value ([2]; WO 2012/064805 A1)?
Answer: converts to the hydrate form

Question: What about the Hygroscopicity [2] of the same compound?
Answer: hygroscopic

Question: Which “BCS Class” value [3] does the source give for CN(C)C(=O)c1cc2cnc(Nc3ccc(N4CCNCC4)cn3)nc2n1C1CCCC1 [Ribociclib succinate, 7-cyclopentyl-N,N-dimethyl-2-{[5-(piperazin-1-yl)pyridin-2-yl]amino}-7H-pyrrolo[2,3-d]pyrimidine-6-carboxamide] here?
Answer: Class IV

Question: And the “Solubility (BCS assessment)” value [3]?
Answer: low solubility

Question: And the Hygroscopicity [2]?
Answer: exhibits hygroscopicity
